“Also recorded” adds a separate entry of the source.
Columns and labels:
Assay type in all cases: biochemical, bovine
[1] = system: poly(A)-specific 3′-exonuclease activity; test: Conditions for the in-vitro deadenylation: ions and spermidine (1D TLC); details: for influence on deadenylation activity / decrease of activity as compared with the activity in the presence of Mg2+: Poly(A) Sepharose fraction; for influence on deadenylation activity: tail-labeled L3(A30) RNA; for decrease of activity as compared with the activity in the presence of Mg2+: 1 mM divalent ion, L3(A30) RNA
Method: (§1) The test conditions for the in-vitro deadenylation were as follows: 1 mM MgCl2, 2.5% (w/v) poly(vinyl alcohol) (Sigma P-8136, Mw 10,000), 100 mM KCl, 0.15 Unit RNAguard, from 5 to 20 fmol of RNA substrate, from 20 to 48% (v/v) buffer (20 mM HEPES (KOH), 0.2 mM EDTA, 0.5 mM DTT, 25% glycerol, pH 7) and the appropriate protein fraction (Åström, J. et al. (1992), see above). The reaction volume was 15 or 25 μl and the incubations were carried out at 30° C. The reactions were then terminated and RNA was purified as described in Moore, C. L. & Sharpe, P. A. (1985), see above. The RNA was analyzed by electrophoresis in 10% polyacrylamide (19:1 acrylamide/bisacrylamide)—7 M urea gels, followed by autoradiography of the resulting gels.
(§2) The deadenylation activity was quantified as follows: L3(A30) RNA substrate, labeled with [α^32P]ATP, was incubated in an in-vitro deadenylation reaction. The reaction products were analyzed by 1D TLC using mobile solvent III (0.75 M K2HPO4, pH 3.5 (H3PO4)). The resulting PEI-Cellulose F plate was dried and scanned in a 400 S Phosphorimager (Molecular Dynamics). The fractions containing released [α^32P]AMP were determined. The quantity, in mol, of released AMP was calculated on the basis of the known specific activity of [α^32P]AMP in the RNA substrate. One unit of deadenylation activity corresponds to the release of 1 pmol of AMP/minute.
The conditions for measuring poly(A) deadenylation activity in accordance with the above-described deadenylation test were determined using Poly(A) Sepharose fractions as the enzyme source and poly(A) tail-labeled L3(A30) RNA as the substrate. The activity was measured in terms of the release of the mononucleotides in the 1D TLC test (see above). The requirement of monovalent (potassium and sodium) and divalent (magnesium, manganese, zinc and calcium) ions for this was investigated.

[2] = system: poly(A)-specific 3′-exonuclease activity; test: Kinetics of the nuclease activity (time course, added poly(A)); details: 20 minutes, 0.5 μl Poly(A) Sepharose fraction, L3(A30) RNA
Method: FIGS. 5A-C show the ongoing degradation of poly(A). The Poly(A) Sepharose fraction was incubated, under in-vitro deadenylation conditions, with X fmol of the L3(A30) RNA substrate which had been labeled with [α-^32P]UTP during in-vitro transcription. The reaction products were fractionated in a 10% polyacrylamide:bisacrylamide 19:1-7 M urea gel. S and P indicate the migration sites of the RNA substrate (S) and the product (P). […] The indicated quantities of poly(A) in ng were added to the reactions.
as §1, with “The reaction volume was 15 or 25 μl and the incubations were carried out at 30° C. The reactions were then terminated and RNA was purified as described in Moore, C. L. & Sharpe, P. A. (1985), see above.” left out
In order to determine whether the nuclease activity degrades RNA substrates in a progressive or distributive manner, the kinetics was first of all determined in an in-vitro deadenylation reaction in the presence of 0.5 μl of a Poly(A) Sepharose fraction and x fmol of L3(A30) RNA substrate which had been labeled overall. […]

[3] = system: poly(A)-specific 3′-exonuclease activity; test: Substrate specificity: Km and Vmax for homopolymer-tailed RNA substrates (Lineweaver-Burke plot); details: Poly(A) Sepharose fraction; tail-labeled RNA substrates
Method: as §1, §2
The RNA substrate specificity of the activity was investigated in two experiments. In a first experiment, the RNA substrates L3(A30), ML45(U30), ML40(C32) and ML43(G30), whose homopolymeric tails had been radioactively labeled, were incubated in an in-vitro deadenylation test (see above). The release of radioactive mononucleotides was measured in the 1D TLC test (see above). The measurement results were used to calculate the Km and Vmax values for each RNA substrate using the Lineweaver-Burke plot (see Table II). In a second experiment, the substrate specificity was measured by incubating RNA substrates containing internal poly(A) segments, followed by plasmid-encoded RNA sequences of increasing length, with Poly(A) Sepharose fractions in an in-vitro deadenylation test. […] It follows from this that RNA tails composed of adenosine residues are the preferred substrate and that only 3′ end-located poly(A) tails are effectively degraded.

Compound: NCCCCNCCCN [spermidine]
- influence on deadenylation activity [1]: no influence on the activity; also recorded: if anything, it is inhibited both at low and at high salt concentrations

Compound: [Mn+2] [Mn^2+]
- decrease of activity as compared with the activity in the presence of Mg2+ [1]: 17%
- influence on deadenylation activity [1]: also active in the presence of Mn^2+

Compound: [Mg+2] [magnesium ions]
- optimum concentration of ion for deadenylation activity [1]: 1 mM

Compound: poly(A)
- effect of added poly(A) on the deadenylation reaction [2]: inhibits the reaction
- Km [3]: 0.01 µM

Compound: poly(U)
- Km [3]: 0.02 µM

Compound: [K+] [potassium ions]
- influence on deadenylation activity [1]: activity is higher in the presence of potassium ions than in the presence of sodium ions

Compound: [Zn+2] [Zn^2+]
- decrease of activity as compared with the activity in the presence of Mg2+ [1]: 2%

Compound: [Ca+2] [Ca^2+]
- decrease of activity as compared with the activity in the presence of Mg2+ [1]: 0.7%

Compound: poly(G)
- Km [3]: 0.007 µM

Compound: poly(C)
- Km [3]: 0.01 µM

Source: patent publication US6451307B1, “3′-exonuclease, production and use thereof” (Aventis Research & Technologies GmbH & Co. KG, priority 1998, dated 2002)
